Values quoted from earlier work in patent EP1131101B1, “KHELLIN PREPARATION AND THE USE THEREOF FOR TOPICAL THERAPY” (priority 1998, dated 2000).

Assays:
[1] = animal experiments; UVA phototherapy with Khellin compared with photochemotherapy with 8-MOP
Plaque-Psoriasis = conditions: oral 100 mg Khellin then sun exposure

For `COc1c2occc2c(OC)c2c(=O)cc(C)oc12` [Khellin, 4,9-Dimethoxy-7-methyl-5H-furo[3,2-g][1] benzopyran-5-on], which Photomutagenität (Bakterien) is on record?
Its Photomutagenität is “nur eine geringe Photomutagenität”.

What about the “karzinogenes Risiko” value [1] of the same compound?
The value was “deutlich geringeres karzinogenes Risiko”.

And the Mutagenität (Grünalgen)?
Its Mutagenität is “keine signifikante Mutagenität”.

And the “auf die Behandlung ansprachen” value (Plaque-Psoriasis; 10 patients with plaque psoriasis)?
The value was 80%.

What about the “für drei Jahre symptomfrei” value (Plaque-Psoriasis; of the responding patients) of the same compound?
The value was 6 von 8.
